Measured values reported in ChEMBL document CHEMBL1157371, “Prevalence, characteristics, and molecular epidemiology of macrolide and fluoroquinolone resistance in clinical isolates of Streptococcus pneumoniae at five tertiary-care hospitals in Korea” (2007).
In brackets after ≈: the same amount, converted by molar mass.

Key:
Assay type in all cases: functional
Streptococcus pneumoniae [1] = assay: Antibacterial activity against erythromycin-resistant Streptococcus pneumoniae isolates by broth microdilution method
Streptococcus pneumoniae [2] = assay: Antibacterial activity against erythromycin-resistant Streptococcus pneumoniae isolates assessed as percent susceptible isolates by broth microdilution method
Streptococcus pneumoniae [3] = assay: Antibacterial activity against erythromycin-resistant Streptococcus pneumoniae isolates assessed as percent resistant isolates by broth microdilution method
Streptococcus pneumoniae [4] = assay: Antibacterial activity against erythromycin-resistant Streptococcus pneumoniae isolate-1 with gyrA Glu85Lys, ParC Ser79Phe and parE Ile460Val mutation by broth microdilution method
Streptococcus pneumoniae [5] = assay: Antibacterial activity against erythromycin-resistant Streptococcus pneumoniae isolate-2 with gyrA Ser81Phe, Ser114Gly, ParC Ser52Gly, Ser79Phe, Asn91Asp and parE Ile460Val mutation by broth microdilution method
Streptococcus pneumoniae [6] = assay: Antibacterial activity against erythromycin-resistant Streptococcus pneumoniae isolate-3 with ParC Ser79Tyr and parE Ile460Val mutation by broth microdilution method
Streptococcus pneumoniae [7] = assay: Antibacterial activity against erythromycin-resistant Streptococcus pneumoniae isolate-4 with gyrA Ser81Phe, ParC Lys137Asn and parE Ile460Val, Asp435Asn mutation by broth microdilution method
Streptococcus pneumoniae [8] = assay: Antibacterial activity against erythromycin-resistant Streptococcus pneumoniae isolate-5 with ParC Ser79Tyr, Lys137Asn and parE Ile460Val mutation by broth microdilution method
Streptococcus pneumoniae [9] = assay: Antibacterial activity against erythromycin-resistant Streptococcus pneumoniae isolate-6 with parE Ile460Val mutation by broth microdilution method
Streptococcus pneumoniae [10] = assay: Antibacterial activity against erythromycin-resistant Streptococcus pneumoniae isolate-7 with parE Ile460Val mutation by broth microdilution method
Streptococcus pneumoniae [11] = assay: Antibacterial activity against erythromycin-resistant Streptococcus pneumoniae isolate-8 with parE Ile460Val mutation by broth microdilution method
Streptococcus pneumoniae [12] = assay: Antibacterial activity against erythromycin-resistant Streptococcus pneumoniae isolate-9 with parC Asn94ser and parE Ile460Val mutation by broth microdilution method

Compound | MIC50 (Streptococcus pneumoniae [1]) [µg/mL] | MIC90 (Streptococcus pneumoniae [1]) [µg/mL] | Percent susceptible isolates (Streptococcus pneumoniae [2]) [%] | Activity (Streptococcus pneumoniae [3]) [%] | MIC (Streptococcus pneumoniae [4]) [µg/mL] | MIC (Streptococcus pneumoniae [5]) [µg/mL] | MIC (Streptococcus pneumoniae [6]) [µg/mL] | MIC (Streptococcus pneumoniae [7]) [µg/mL] | MIC (Streptococcus pneumoniae [8]) [µg/mL] | MIC (Streptococcus pneumoniae [9]) [µg/mL] | MIC (Streptococcus pneumoniae [10]) [µg/mL] | MIC (Streptococcus pneumoniae [11]) [µg/mL] | MIC (Streptococcus pneumoniae [12]) [µg/mL]
CC1(C)S[C@@H]2[C@H](NC(=O)[C@H](N)c3ccc(O)cc3)C(=O)N2[C@H]1C(=O)O [AMOXICILLIN] | 4 (≈ 10.9 µM) | 16 (≈ 43.8 µM) | 40.9 | 33.2 | – | – | – | – | – | – | – | – | –
CO/N=C(\C(=O)N[C@@H]1C(=O)N2C(C(=O)O)=C(COC(C)=O)CS[C@H]12)c1csc(N)n1 [CEFOTAXIME] | 1 (≈ 2.2 µM) | 2 (≈ 4.39 µM) | 78.7 | 3.4 | – | – | – | – | – | – | – | – | –
CO/N=C(\C(=O)N[C@@H]1C(=O)N2C(C(=O)O)=C(CSc3nc(=O)c(O)nn3C)CS[C@H]12)c1csc(N)n1 [CEFTRIAXONE] | 1 (≈ 1.8 µM) | 2 (≈ 3.61 µM) | 76.2 | 3.4 | – | – | – | – | – | – | – | – | –
CC[C@H]1OC(=O)[C@H](C)[C@@H](O[C@H]2C[C@@](C)(OC)[C@@H](O)[C@H](C)O2)[C@H](C)[C@@H](O[C@@H]2O[C@H](C)C[C@H](N(C)C)[C@H]2O)[C@](C)(OC)C[C@@H](C)C(=O)[C@H](C)[C@@H](O)[C@]1(C)O [CLARITHROMYCIN] | 64 (≈ 85.6 µM) | ≥ 128 | 23.4 | 72.8 | – | – | – | – | – | – | – | – | –
CC[C@H]1OC(=O)[C@H](C)[C@@H](O[C@H]2C[C@@](C)(OC)[C@@H](O)[C@H](C)O2)[C@H](C)[C@@H](O[C@@H]2O[C@H](C)C[C@H](N(C)C)[C@H]2O)[C@](C)(O)C[C@@H](C)C(=O)[C@H](C)[C@@H](O)[C@]1(C)O [ERYTHROMYCIN] | 4 (≈ 5.45 µM) | ≥ 128 | 20 | 80 | – | – | – | – | – | – | – | – | –
C[C@H]1COc2c(N3CCN(C)CC3)c(F)cc3c(=O)c(C(=O)O)cn1c23.C[C@H]1COc2c(N3CCN(C)CC3)c(F)cc3c(=O)c(C(=O)O)cn1c23.O [LEVOFLOXACIN] | 1 | 2 | 96.2 | 3 | 0.032 | 0.008 | 0.064 | 0.008 | 0.004 | 0.008 | 0.064 | 0.064 | 0.004
CC(=O)NC[C@H]1CN(c2ccc(N3CCOCC3)c(F)c2)C(=O)O1 [LINEZOLID] | 0.5 (≈ 1.48 µM) | 1 (≈ 2.96 µM) | 100 | 0 | – | – | – | – | – | – | – | – | –
COc1c(N2C[C@@H]3CCCN[C@@H]3C2)c(F)cc2c(=O)c(C(=O)O)cn(C3CC3)c12 [MOXIFLOXACIN] | – | – | 97.9 | 1.7 | – | – | – | – | – | – | – | – | –
CN(C)[C@@H]1C(O)=C(C(N)=O)C(=O)[C@@]2(O)C(O)=C3C(=O)c4c(O)cccc4[C@@](C)(O)[C@H]3C[C@@H]12 [TETRACYCLINE] | 32 (≈ 72 µM) | 64 (≈ 144 µM) | 18.3 | 81.3 | – | – | – | – | – | – | – | – | –
CN[C@H](CC(C)C)C(=O)N[C@H]1C(=O)N[C@@H](CC(N)=O)C(=O)N[C@H]2C(=O)N[C@H]3C(=O)N[C@H](C(=O)N[C@H](C(=O)O)c4cc(O)cc(O)c4-c4cc3ccc4O)[C@H](O)c3ccc(c(Cl)c3)Oc3cc2cc(c3O[C@@H]2O[C@H](CO)[C@@H](O)[C@H](O)[C@H]2O[C@H]2C[C@](C)(N)[C@H](O)[C@H](C)O2)Oc2ccc(cc2Cl)[C@H]1O [VANCOMYCIN] | 0.25 (≈ 0.173 µM) | 0.25 (≈ 0.173 µM) | 100 | 0 | – | – | – | – | – | – | – | – | –
